Laboratory results: PMC6764291 (Frontiers in Oncology, 2019)
Entries after “also recorded” stand apart in the source; their conditions may differ.

Key:
UM-SCC-74A = experiment: XTT cell viability, UM-SCC-74A; format: cell-based, human
Experimental: The human squamous cell carcinoma cell lines UM-SCC-74A and UM-SCC-74B were kindly provided by Professor TE Carey (University of Michigan, USA) and cultured in Dulbecco's Modified Eagle Medium (DMEM) with 10% fetal bovine serum, 1% L-glutamine, 1% antibiotics (100 IU penicillin and 100 μg/ml streptomycin) as well as 1% non-essential amino acids (all from Biochrom Kg, Berlin, Germany). UT-SCC-45 (kindly provided by Dr. R. Grenman, Turku University Central Hospital, Finland) was cultured in DMEM with the abovementioned additives. HCT116 and A431 were purchased from American Type Culture Collection (Manassas, VA, USA). HCT116 was cultured in McCoy's modified Eagle medium with 10% fetal bovine serum, 1% L-glutamine and 1% antibiotics (100 IU penicillin and 100 μg/ml streptomycin) and A431 was cultured in Ham's F10 with the same additives. H314 was purchased from the European Collection of Authenticated Cell Cultures (Salisbury, UK) in DMEM/Ham's F12 (1:1) with the abovementioned additives. Cells were incubated at 37°C with 5% CO2, and cultivated for no longer than 2 months at a time.
(§1) Cells were irradiated using ^137Cs gamma-ray photons at a dose-rate of ~1 Gy/min (Best Theratronics Gammacell® 40Exactor, Springfield, USA).
Five-hundred to ten thousands cells were seeded in flat-bottomed 96-well plates and incubated for 48 h prior to irradiation with 2Gy. […] Cells were incubated at 37° for 4–5 days until 80–90% confluence had been obtained. A mix of XTT Activation Reagent and XTT Reagent was added according to the American Type Culture Collection 30–1011 K protocol (Manassas, VA, USA). Plates were incubated for up to 6 h at 37° and absorbance was measured by using a BioMark Microplate Reader (Bio-Rad Laboratories AB, Solna, Sweden).
GraphPad Prism version 6.07 (GraphPad Software, San Diego, USA) was used for data processing and analysis. p-values were determined using unpaired student's t-test for comparison between two groups or one-way ANOVA followed by Tukey's multiple comparisons test, with p < 0.05 (^*), p < 0.01 (^**), p < 0.001 (^***), and p < 0.0001 (^****). For XTT assays cell viability was normalized for irradiated and unirradiated samples separately. […] CDI ≤ 0.7 equaled significant synergistic effect, CDI ≤ 1 equaled additive effect and CDI > 1 equaled antagonistic effect ([29]).

GLB-1 [1] = experiment: Western Blot GLB-1 expression, HCT116; format: cell-based; details: 2 Gy + 20 μM PM2, n ≥ 3
Experimental: as §1
(§2) Whole-cell lysates were prepared according to standard protocols. Protein concentrations were measured using a DeNovix DS-11 spectrophotometer (DeNovix Inc., Wilmington, DE, USA). Samples were separated on 4–12% Bis-Tris SDS gels and transferred to a nitrocellulose membrane (ThermoFisher Scientific, Uppsala, Sweden) by wet-transfer blotting. The membrane was blocked for 1 h in PBS with 5% BSA before incubation with primary antibodies targeting p53, caspase-3, NaK-ATPase and GLB1 (DO-1 (ab1101), ab13847, ab76020 and ab128993, AbCam, Cambridge, UK) and β-actin (A5441, Sigma Aldrich Sweden, Stockholm, Sweden) at 4°C overnight. After washing with PBS with 1% Tween-20, the membrane was incubated with respective and species-specific Horse Radish Peroxidase-labeled secondary antibody (ThermoFisher Scientific, Waltham, MA, USA) and stained with electro-chemiluminescent solution (Immobilon, Millipore, Bedford, USA).

A431 = experiment: XTT cell viability, A431; format: cell-based; details: n ≥ 4
Experimental: The human squamous cell carcinoma cell lines UM-SCC-74A and UM-SCC-74B were kindly provided by Professor TE Carey (University of Michigan, USA) and cultured in Dulbecco's Modified Eagle Medium (DMEM) with 10% fetal bovine serum, 1% L-glutamine, 1% antibiotics (100 IU penicillin and 100 μg/ml streptomycin) as well as 1% non-essential amino acids (all from Biochrom Kg, Berlin, Germany). UT-SCC-45 (kindly provided by Dr. R. Grenman, Turku University Central Hospital, Finland) was cultured in DMEM with the abovementioned additives. HCT116 and A431 were purchased from American Type Culture Collection (Manassas, VA, USA). […]
Five-hundred to ten thousands cells were seeded in flat-bottomed 96-well plates and incubated for 48 h prior to irradiation with 2Gy. […] Plates were incubated for up to 6 h at 37° and absorbance was measured by using a BioMark Microplate Reader (Bio-Rad Laboratories AB, Solna, Sweden).
GraphPad Prism version 6.07 (GraphPad Software, San Diego, USA) was used for data processing and analysis. p-values were determined using unpaired student's t-test for comparison between two groups or one-way ANOVA followed by Tukey's multiple comparisons test, with p < 0.05 (^*), p < 0.01 (^**), p < 0.001 (^***), and p < 0.0001 (^****). […]

Noxa = experiment: Flow cytometry Noxa expression, UM-SCC-74B; format: cell-based, human; details: 20 μM PM2, 72 h
Experimental: as §1
(§3) Cells were collected and fixed in 70% ethanol at 6, 12, 24, 48, 72, and 96 h post-irradiation and stored at −20°C. For cell cycle analyses, 6, 12, 24, and 48 h samples were rehydrated and washed twice with PBS and stained with DAPI (Sigma Aldrich Sweden, Stockholm, Sweden) using 1 μg/ml for 30 min. 24, 48, 72, and 96 h samples were stained with caspase-3 and Noxa (ab13847 (1:500) and ab13654 (1:1,000), AbCam, Cambridge, UK) overnight at 4°C, followed by incubation with fluorescent labeled secondary antibodies for 90 min (ab 1:400) at room temperature. Analyses were performed using a BD LSR Fortessa flow cytometer (Becton Dickinson Biosciences, San Jose, USA). Data analyses for cleaved caspase-3 and Noxa were performed with BD FACSDiVa (Becton Dickinson Biosciences, San Jose, USA), while cell cycle analyses of exclusively viable cells were performed using FlowJo (Becton, Dickinson Biosciences, San Jose, USA). Coefficient of variation (CV) values, were below seven for all samples.

cleaved caspase-3 [2] = experiment: Western Blot cleaved caspase-3 expression, HCT116; format: cell-based
Experimental: as §1, §2

p53^−/− tumors = details: mice, PM2 combined with radiotherapy; cited from earlier work
UM-SCC-74B = experiment: Cell cycle analysis by flow cytometry, UM-SCC-74B; format: cell-based, human; details: for G2/M-phase / S-phase: viable cells, DAPI
Experimental: as §1, §3

cleaved caspase-3 [3] = experiment: Flow cytometry cleaved caspase-3, UM-SCC-74B; format: cell-based, human
Experimental: as §1, §3

cleaved caspase-3 [4] = experiment: Flow cytometry cleaved caspase-3, HCT116; format: cell-based
Experimental: as §1, §3

GLB-1 [5] = experiment: Western Blot GLB-1 expression, UM-SCC-74B; format: cell-based, human; details: 2 Gy + 20 μM PM2, 72 h, n ≥ 3
Experimental: as §1, §2

wt p53 tumors = details: mice, PM2 combined with radiotherapy; cited from earlier work
[6] = Combination 2 Gy + 20 μM PM2, 6 h
[7] = Combination 2 Gy + 20 μM PM2, 12 h
[8] = Combination 2 Gy + 20 μM PM2, 24 h
[9] = Combination 2 Gy + 20 μM PM2, 48 h

Question: For CC(=O)N[C@H](C(=O)N[C@@H](CO)C(=O)N[C@@H](Cc1ccccc1)C(=O)N[C@]1(C)CCCCCCC=CCCC[C@@](C)(C(N)=O)NC(=O)[C@H](CC(C)C)NC(=O)[C@H](CC(C)C)NC(=O)[C@H](C)NC(=O)[C@H](Cc2c[nH]c3ccccc23)NC(=O)[C@H](Cc2ccc(O)cc2)NC(=O)[C@H](CCC(=O)O)NC1=O)[C@@H](C)O [PM2], which PM2 effect (UM-SCC-74A; 0–20 μM PM2, 0 Gy, wild-type p53, HPV negative, n ≥ 4) is on record?
Answer: decreased significantly the viability and Yes

Question: What about the average viability reduction (UM-SCC-74A; 20 μM PM2, 0 Gy, compared to untreated controls) of the same compound?
Answer: 73%

Question: What about the “lowest PM2 dose with significant decrease of viability” value (UM-SCC-74A; PM2 alone) of the same compound?
Answer: ~ 10 μM

Question: What about the IC50 (UM-SCC-74A; PM2 alone (0 Gy), 4–5 days) of the same compound?
Answer: 16 µM

Question: What about the “Significant effect of combination” value (UM-SCC-74A; PM2 with 2 Gy EBRT, n ≥ 4) of the same compound?
Answer: Yes

Question: And the “GLB-1 expression versus irradiated and control, combination” value (GLB-1 [1])?
Answer: less pronounced and failed to reach significance

Question: And the PM2 effect (A431; 0–20 μM PM2, 0 Gy, single base p53 mutation, HPV negative)?
Answer: did not affect and unaffected and No

Question: And the “Significant effect of combination” value (A431; PM2 with 2 Gy EBRT)?
Answer: significantly decreased the viability and significant decrease in viability and Yes

Question: And the “Noxa expression” value (Noxa)?
Answer: distinct increases

Question: And the “increase in cleaved caspase-3 levels” value (cleaved caspase-3 [2]; 20 μM PM2, 96 h (representative blots), normalized to controls, n ≥ 3)?
Answer: three-fold

Question: What about the “cleaved caspase-3 expression” value (cleaved caspase-3 [2]; 20 μM PM2-treated samples, n ≥ 3) of the same compound?
Answer: increase in expression

Question: What about the “cleaved caspase-3 expression, combination” value (cleaved caspase-3 [2]; 2 Gy + 20 μM PM2, n ≥ 3) of the same compound?
Answer: predominant

Question: What about the “effects on p53^−/− tumors” value (p53^−/− tumors) of the same compound?
Answer: negligible

Question: And the G2/M-phase (UM-SCC-74B; 20 μM PM2 alone, 6 h)?
Answer: 19.7%

Question: What about the S-phase (UM-SCC-74B; 20 μM PM2 alone, 6 h) of the same compound?
Answer: 41.6%

Question: What about the G2/M-phase (UM-SCC-74B; 20 μM PM2 alone, 24 h) of the same compound?
Answer: 16.7%

Question: And the S-phase (UM-SCC-74B; 20 μM PM2 alone, 24 h)?
Answer: 12.9%

Question: And the G2/M-phase (UM-SCC-74B; 20 μM PM2 alone, 48 h)?
Answer: 10.8%

Question: And the S-phase (UM-SCC-74B; 20 μM PM2 alone, 48 h)?
Answer: 17.4%

Question: And the “S-phase reduction / depletion” value (UM-SCC-74B; 2 Gy + 20 μM PM2)?
Answer: S-phase reduction occurred as early as 12 h post-treatment; also recorded: S-phase depletion at 24 h post-treatment

Question: What about the G2/M-phase (UM-SCC-74B; [6]) of the same compound?
Answer: 37.9%

Question: And the S-phase (UM-SCC-74B; [6])?
Answer: 42.9%

Question: And the G2/M-phase (UM-SCC-74B; [7])?
Answer: 39.4%

Question: What about the S-phase (UM-SCC-74B; [7]) of the same compound?
Answer: 7.31%

Question: And the G2/M-phase (UM-SCC-74B; [8])?
Answer: 23.8%

Question: And the S-phase (UM-SCC-74B; [8])?
Answer: 2.89%

Question: And the G2/M-phase (UM-SCC-74B; [9])?
Answer: 20.6%

Question: What about the S-phase (UM-SCC-74B; [9]) of the same compound?
Answer: 5.37%

Question: What about the “cleaved caspase-3 expression” value (cleaved caspase-3 [3]; 20 μM PM2, 72 h) of the same compound?
Answer: distinct increases

Question: And the “cleaved caspase-3 increase compared to controls” value (cleaved caspase-3 [3]; 20 μM PM2-treated, peak at 72 h, n ≥ 3)?
Answer: 40 fold

Question: What about the “cleaved caspase-3, combination versus PM2 alone” value (cleaved caspase-3 [3]; 2 Gy + 20 μM PM2, p ≤ 0.05) of the same compound?
Answer: significantly higher expression levels

Question: What about the “cleaved caspase-3 expression” value (cleaved caspase-3 [4]; 20 μM PM2, 72 h) of the same compound?
Answer: distinct increases

Question: And the “cleaved caspase-3 increase compared to controls” value (cleaved caspase-3 [4]; 20 μM PM2-treated, peak at 96 h, n ≥ 3)?
Answer: 10 fold

Question: And the “GLB-1 expression, combination versus irradiated” value (GLB-1 [5])?
Answer: significant increase

Question: And the “prolongation of median survival” value (wt p53 tumors)?
Answer: 50%
